These results are taken from patent EP0319228A2, “Novel compounds” (BEECHAM GROUP PLC, priority 1987, dated 1989).

≈ marks a conversion by molar mass, not a printed value. Where two headings read alike, the source gives them in different places.

What all share (assay type): cell-based
The subject of assay [1] is herpes simplex virus 2 (HSV-2; strain MS). The assay can be described thus: Plaque reduction test for herpes simplex virus 2. Here is the method: (§1) Cells (Vero or MRC-5) were grown to confluence in 24 well multi-dishes (well diameter = 1.5cm). The drained cell monolayers were each infected with approximately 50 infectious particles of herpes simplex virus 1 (HSV-1; strain HFEM) or herpes simplex virus 2 (HSV-2; strain MS) in 100µl of phosphate-buffered saline. The virus was absorbed for 1 hour at room temperature. After adsorption, residual inoculum was removed from each well and replaced with 0.5ml of Eagle's MEM containing 5% newborn calf serum and 0.9% agarose (A37). Once the agarose had set, dilutions of the test compound, which had been prepared in Eagle's MEM (containing 5% newborn calf serum), were added, each well receiving 0.5ml of liquid overlay. The test compound was diluted to give the following series of concentrations: 200, 60, 20, 6....0.06µg/ml; final concentrations in the assay ranged, therefore, between 100µg/ml and 0.03µg/ml. The infected cultures were incubated at 37°C in a humidified atmosphere of 5% CO₂ until plaques were clearly visible (2 or 3 days for Vero cells, usually […] for MRC-5 cells).
(§2) Cultures from 1 and 2 were fixed in formol saline, the agarose overlays were carefully washed off, and then the cell monolayers were stained with carbol fuchsin. A stereo microscope was used to count plaques. The IC₅₀ (concentration of drug which inhibits the number of plaques formed by 50% relative to the number of plaques observed in virus control monolayers) of the test compound was calculated. In addition, the monolayers were examined for evidence of drug-induced cytotoxicity; the minimum concentration at which cytotoxicity occurs was recorded.

For assay [2], the system named is visna virus (strain K184). The assay can be described thus: CPE inhibition test (established monolayer) for lentiviruses. To be noted: Visna-maedi virus, read-out: MIC Visna Virus K184 strain in SCP cells. Here is the method:
3 x 10⁴ sheep choroid plexus (SCP) cells were plated into individual wells of a 96 well microtitre plate in 100µl of Eagle's MEM with Hanks' salts containing 10% heat inactivated foetal calf serum (FCS). When monolayers had become established (after 1 or 2 days growth) they were washed with 200µl of maintenance medium (Eagle's MEM with Hanks' salts containing 0.5% FCS) and infected with 100µl of visna virus (strain K184) in maintenance medium (20 TCID₅₀/ml). Test samples were diluted with maintenance medium in further 96 well microtitre plates over the range 200-0.06µg/ml by 3-fold dilution steps. 100µl of the diluted samples was then transferred directly onto virus-infected monolayers (final concentration range therefore 100-0.03µg/ml) and incubated at 37°C in a humidified atmosphere containing, 5% CO₂ until virus-induced CPE was maximal in the untreated virus-infected controls (usually 12-14 days). The plates were fixed with formal saline and stained with crystal violet. Virus-induced CPE was then scored microscopically and the minimum concentration of sample giving complete protection of the cell monolayers (MIC) determined.

Assay [3] deals with varicella zoster virus (VZV; Ellen strain). The experiment in a line: Plaque reduction test for varicella zoster virus. The protocol:
MRC-5 cells were grown to confluence in 24 well multi-dishes (well diameter = 1.5cm). The drained cell monolayers were each infected with approximately 50 infectious particles of varicella zoster virus (VZV; Ellen strain) in 100µl of phosphate-buffered saline. The virus was adsorbed for 1 hour at room temperature. After adsorption, residual inoculum was removed from each well and replaced with 0.5ml of Eagles's MEM containing 5% […] foetal calf serum and 0.9% agarose (A37). Once the agarose had set, dilutions of the test compound, which had been prepared in Eagle's MEM (containing 5% heat-inactivated foetal calf serum), were added, each well receiving 0.5ml of liquid overlay. The test compound was diluted to give the following series of concentrations: 200, 60, 20, 6....0.06µg/ml; final concentrations in the assay ranged, therefore, between 100µg/ml and 0.03µg/ml. The infected cultures were incubated at 37°C in a humidified atmosphere of 5% CO₂ until plaques were clearly visible (5 or 6 days).
as §2
For orientation: Plaques are areas of infected cells; plaque reduction assays count them against a control.

In assay [4] the test system is herpes simplex virus 1 (HSV-1; strain HFEM). The assay can be described thus: Plaque reduction test for herpes simplex virus 1. To be noted: read-out: IC₅₀ Herpes Simplex virus Type 1 HFEM strain in Vero cells. Here is the method:
as §1, §2

[5] abbreviates: Human alphaherpesvirus 2, MRC5, read-out: IC₅₀ Herpes Simplex virus Type 2 MS strain in MRC-5 cells.
[6] abbreviates: Human alphaherpesvirus 3, MRC5, read-out: IC₅₀ Varicella Zoster virus Ellen strain in MRC-5 cells.
Setting [7] is: Human alphaherpesvirus 2, MRC5, plaque reduction, MS strain, MRC-5 cells, read-out: IC₅₀ Herpes Simplex virus Type 2 MS strain in MRC-5 cells.
[8] abbreviates: minimum concentration giving complete protection of the cell monolayers from virus-induced CPE, sheep choroid plexus (SCP) cells.
Setting [9] is: Human alphaherpesvirus 3, MRC5, plaque reduction, Ellen strain, MRC-5 cells, read-out: IC₅₀ Varicella Zoster virus Ellen strain in MRC-5 cells.
[10] abbreviates: Human alphaherpesvirus 1, plaque reduction, HFEM strain, Vero cells.

`CCOP(=O)(COCCOn1cnc2c(N)ncnc21)OCC` [Example 1, 9-[2-(Diethoxyphosphorylmethoxy)ethoxy]adenine]: the IC50 in assay [1] (setting [5]) was > 100 µg/mL; in assay [3] (setting [6]), > 100 µg/mL; in assay [4] (Human alphaherpesvirus 1, Vero), > 100 µg/mL. Besides, in assay [2] (in Ovis aries), the MIC came out at 100 µg/mL (≈ 290 µM).

Turning to `Nc1ncnc2c1ncn2OCCOCP(=O)(O)O` [Example 2, 9-[2-(Phosphonemethoxy)ethoxy]adenine], the IC50 in assay [1] (setting [7]) was 69 µg/mL (≈ 239 µM); in assay [3] (setting [9]) it was 80 µg/mL (≈ 277 µM); in assay [4] (setting [10]), > 100 µg/mL. The MIC in assay [2] (setting [8]) was 3 µg/mL (≈ 10.4 µM).

`CCOP(=O)(COCCOn1cnc2c(=O)[nH]c(N)nc21)OCC` [Example 3, 9-[2-(Diethoxyphosphorylmethoxy)ethoxy]guanine]: the IC50 in assay [1] (setting [5]) was > 100 µg/mL; in assay [3] (setting [6]), 51 µg/mL (≈ 141 µM); in assay [4] (Human alphaherpesvirus 1, Vero) it was > 100 µg/mL. Moreover, the MIC in assay [2] (in Ovis aries) is 10 µg/mL (≈ 27.7 µM).

In the case of `Nc1nc2c(ncn2OCCOCP(=O)(O)O)c(=O)[nH]1` [Example 4, 9-[2-(Phosphonomethoxy)ethoxy]guanine], the IC50 was determined as 0.08 µg/mL (≈ 0.262 µM) in assay [1] (setting [7]), 0.06 µg/mL (≈ 0.197 µM) in assay [3] (setting [9]) and 1.1 µg/mL (≈ 3.6 µM) in assay [4] (setting [10]). Moreover, the MIC in assay [2] (setting [8]) is < 0.003 µg/mL.

On to `CCOP(=O)(O)COCCOn1cnc2c(=O)[nH]c(N)nc21` [Example 5, 9-[2-[Ethoxy(hydroxy)phosphorylmethoxy)ethoxy]guanine], for which the IC50 is < 3 µg/mL in assay [3] (setting [6]) and 59 µg/mL (≈ 177 µM) in assay [4] (Human alphaherpesvirus 1, Vero).

With `Nc1ncnc2c1ncn2OCC(CO)OCP(=O)(O)O` (centres unmarked) [Example 7, 9-[3-Hydroxy-2-(phosphonomethoxy)propoxy]adenine], the IC50 in assay [1] (setting [7]) was > 100 µg/mL; in assay [3] (setting [9]) it was 66 µg/mL (≈ 207 µM); in assay [4] (setting [10]), > 100 µg/mL. Also, the MIC in assay [2] (setting [8]) was found to be 0.3 µg/mL (≈ 0.94 µM).

Turning to `CCOP(=O)(O)COC(CO)COn1cnc2c(N)ncnc21` (centres unmarked) [Example 8, 9-[2-[ethoxy(hydroxy)phosphorylmethoxy]-3-hydroxypropoxy]adenine], the IC50 in assay [1] (setting [5]) is > 100 µg/mL; in assay [3] (setting [6]) it was 60 µg/mL (≈ 173 µM); in assay [4] (Human alphaherpesvirus 1, Vero), > 100 µg/mL. In assay [2] (in Ovis aries), the MIC was determined as 1 µg/mL (≈ 2.88 µM).

With `Nc1nc2c(ncn2OCC(CO)OCP(=O)(O)O)c(=O)[nH]1` (centres unmarked) [Example 10, 9-[3-Hydroxy-2-(phosphonomethoxy)propoxy]guanine], the figures for the IC50 in assay [1] (setting [7]), in assay [3] (setting [9]) and in assay [4] (setting [10]) were 7.3 µg/mL (≈ 21.8 µM), 21 µg/mL (≈ 62.6 µM) and 17 µg/mL (≈ 50.7 µM), respectively. For the same compound, the MIC in assay [2] (setting [8]) was < 0.003 µg/mL.

With `CCOP(=O)(COCCOn1cnc2c(N)nc(N)nc21)OCC` [Example 11, 2,6-Diamino-9-[2-(diethoxyphosphorylmethoxy)ethoxy]purine], the MIC in assay [2] (in Ovis aries) stood at 30 µg/mL (≈ 83.3 µM). Also, the IC50 was > 100 µg/mL in assay [3] (setting [6]) and > 100 µg/mL in assay [4] (Human alphaherpesvirus 1, Vero).

On to `Nc1nc(N)c2ncn(OCCOCP(=O)(O)O)c2n1` [Example 12, 2,6-Diamino-9-[2-phosphonomethoxy)ethoxy]purine], for which, in assay [2] (setting [8]), the MIC is 0.3 µg/mL (≈ 0.986 µM). Besides, the IC50 is < 3 µg/mL in assay [3] (setting [9]) and 24 µg/mL (≈ 78.9 µM) in assay [4] (setting [10]).

Turning to `Nc1nc(Cl)c2ncn(OCCOCP(=O)(O)O)c2n1` [Example 13, 2-Amino-6-chloro-9-[2-(phosphonomethoxy)ethoxy]purine], the MIC in assay [2] (setting [8]) is < 0.03 µg/mL. Moreover, the IC50 was 0.5 µg/mL (≈ 1.54 µM) in assay [3] (setting [9]) and 3.7 µg/mL (≈ 11.4 µM) in assay [4] (setting [10]).

Regarding `COc1nc(N)nc2c1ncn2OCCOCP(=O)(O)O` [Example 14, 2-Amino-6-methoxy-9-[2-(phosphonomethoxy)ethoxy]purine], the MIC in assay [2] (setting [8]) is < 0.03 µg/mL. Besides, the results for the IC50 in assay [3] (setting [9]) and in assay [4] (setting [10]) were < 0.03 µg/mL and < 3 µg/mL, respectively.

As to `Nc1nc2c(ncn2OCC2COP(=O)(O)CO2)c(=O)[nH]1` (centres unmarked) [Example 15, 9-[(2-Hydroxy-2-oxo-1,4,2-dioxaphosphorinan-5-yl)methoxy]guanine], the IC50 in assay [3] (setting [9]) is < 3 µg/mL; in assay [4] (setting [10]), 29 µg/mL (≈ 91.4 µM).
